Results as given in patent US20260345619A1 (Principia Biopharma Inc., priority 2023, published 2026).

Experiment: Asthma Quality of Life Questionnaire with Standardized Activities (AQLQ(S))
Assay type: in vivo, human
Conditions: mITT
Source text: The AQLQ(S) is a self-administered patient reported outcome to measure the functional impairments that are most troublesome to adolescents and adults ≥12 years of age as a result of their asthma.
Asthma Quality of Life Questionnaire with Standardized Activities (AQLQ(S)) self-administered (≥12 years)
The AQLQ(S) was designed as a self-administered patient reported outcome to measure the functional impairments that are most troublesome to adolescents and adults ≥12 years of age as a result of their asthma. The instrument is comprised of 32 items, each rated on a 7-point Likert scales from 1 to 7. The AQLQ(S) has 4 domains. The domains and the number of items in each domain are as follows: • Symptoms (12 items) • Activity limitation (11 items) • Emotional function (5 items) • Environmental stimuli (4 items)
A global score is calculated ranging from 1 to 7 and a score by domain. Higher scores indicate better quality of life. […] Patients were to complete the questionnaire in an electronic diary during on-site visits.
Secondary endpoints included pre-bronchodilator FEV1 change from baseline at EOT, ACQ-5 score change from baseline, and AQLQ score change from baseline. Other secondary and exploratory endpoints are described in Table 2.

## CC(C)(C=C(C#N)C(=O)N1CCC[C@@H](n2nc(-c3ccc(Oc4ccccc4)cc3F)c3c(N)ncnc32)C1)N1CCN(C2COC2)CC1 (mixture of isomers) [rilzabrutinib, (R)-2-[3-[4-amino-3-(2-fluoro-4-phenoxy-phenyl)pyrazolo[3,4-d]pyrimidin-1-yl]piperidine-1-carbonyl]-4-methyl-4-[4-(oxetan-3-yl)piperazin-1-yl]pent-2-enenitrile]
Week 8, 400 mg TID
  AQLQ(S) Global score, Mean: 5.27
  AQLQ(S) Global score, Median: 5.06
  AQLQ(S) Global score, change from baseline, LS Mean: 0.42
  AQLQ(S) Global score, change from baseline, Mean: 0.29
  AQLQ(S) Global score, change from baseline, Median: 0.34
  AQLQ(S) Symptoms score, Mean: 5.29
  AQLQ(S) Symptoms score, Median: 5.17
  AQLQ(S) Symptoms score, change from baseline, LS Mean: 0.44
  AQLQ(S) Symptoms score, change from baseline, Mean: 0.29
  AQLQ(S) Symptoms score, change from baseline, Median: 0.38
Week 8, 400 mg TID, 95% CI −0.16, 0.43
  AQLQ(S) Symptoms score, change from baseline, LS Mean Diff vs. placebo: 0.13
Week 8, 400 mg TID, 95% CI −0.18, 0.37
  AQLQ(S) Global score, change from baseline, LS Mean Diff vs. placebo: 0.10
Week 8, 400 mg TID, 95% CI −0.18, 0.38
  AQLQ(S) Activity limitation score, change from baseline, LS Mean Diff vs. placebo: 0.10
Week 8, 400 mg TID, 95% CI −0.20, 0.45
  AQLQ(S) Emotional function score, change from baseline, LS Mean Diff vs. placebo: 0.13
Week 8, 400 mg TID, 95% CI −0.34, 0.47
  AQLQ(S) Environmental stimuli score, change from baseline, LS Mean Diff vs. placebo: 0.06
Week 12, 400 mg BID
  AQLQ(S) Activity limitation score, Mean: 5.66
  AQLQ(S) Activity limitation score, Median: 5.82
  AQLQ(S) Activity limitation score, change from baseline, LS Mean: 0.77
  AQLQ(S) Activity limitation score, change from baseline, Mean: 0.85
  AQLQ(S) Activity limitation score, change from baseline, Median: 0.45
  AQLQ(S) Emotional function score, Mean: 5.96
  AQLQ(S) Emotional function score, Median: 6.20
  AQLQ(S) Emotional function score, change from baseline, LS Mean: 0.97
  AQLQ(S) Emotional function score, change from baseline, Mean: 0.72
  AQLQ(S) Emotional function score, change from baseline, Median: 0.40
  AQLQ(S) Environmental stimuli score, Mean: 5.34
  AQLQ(S) Environmental stimuli score, change from baseline, LS Mean: 0.70
  AQLQ(S) Environmental stimuli score, change from baseline, Mean: 0.87
  AQLQ(S) Environmental stimuli score, change from baseline, Median: 0.50
  AQLQ(S) Global score, Mean: 5.75
  AQLQ(S) Global score, Median: 5.72
  AQLQ(S) Global score, change from baseline, LS Mean: 0.82
  AQLQ(S) Global score, change from baseline, Mean: 0.84
  AQLQ(S) Global score, change from baseline, Median: 0.69
  AQLQ(S) Symptoms score, Mean: 5.87
  AQLQ(S) Symptoms score, Median: 5.92
  AQLQ(S) Symptoms score, change from baseline, LS Mean: 0.84
  AQLQ(S) Symptoms score, change from baseline, Mean: 0.87
  AQLQ(S) Symptoms score, change from baseline, Median: 0.83
Week 12, 400 mg BID, 95% CI 0.06, 1.49
  AQLQ(S) Environmental stimuli score, change from baseline, LS Mean Diff vs. placebo: 0.78
Week 12, 400 mg BID, 95% CI 0.12, 1.36
  AQLQ(S) Emotional function score, change from baseline, LS Mean Diff vs. placebo: 0.74
Week 12, 400 mg BID, 95% CI 0.22, 1.11
  AQLQ(S) Symptoms score, change from baseline, LS Mean Diff vs. placebo: 0.67
Week 12, 400 mg BID, 95% CI 0.25, 1.18
  AQLQ(S) Global score, change from baseline, LS Mean Diff vs. placebo: 0.72
Week 12, 400 mg BID, 95% CI 0.28, 1.28
  AQLQ(S) Activity limitation score, change from baseline, LS Mean Diff vs. placebo: 0.78
Week 12, 400 mg TID
  AQLQ(S) Activity limitation score, Mean: 5.45
  AQLQ(S) Activity limitation score, Median: 5.36
  AQLQ(S) Activity limitation score, change from baseline, LS Mean: 0.62
  AQLQ(S) Activity limitation score, change from baseline, Mean: 0.50
  AQLQ(S) Activity limitation score, change from baseline, Median: 0.55
  AQLQ(S) Emotional function score, Mean: 5.57
  AQLQ(S) Emotional function score, Median: 5.60
  AQLQ(S) Emotional function score, change from baseline, LS Mean: 0.53
  AQLQ(S) Emotional function score, change from baseline, Mean: 0.43
  AQLQ(S) Emotional function score, change from baseline, Median: 0.40
  AQLQ(S) Environmental stimuli score, Mean: 5.08
  AQLQ(S) Environmental stimuli score, change from baseline, LS Mean: 0.54
  AQLQ(S) Environmental stimuli score, change from baseline, Mean: 0.46
  AQLQ(S) Environmental stimuli score, change from baseline, Median: 0.50
  AQLQ(S) Global score, Mean: 5.41
  AQLQ(S) Global score, Median: 5.23
  AQLQ(S) Global score, change from baseline, LS Mean: 0.57
  AQLQ(S) Global score, change from baseline, Mean: 0.46
  AQLQ(S) Global score, change from baseline, Median: 0.53
  AQLQ(S) Symptoms score, Mean: 5.41
  AQLQ(S) Symptoms score, Median: 5.25
  AQLQ(S) Symptoms score, change from baseline, LS Mean: 0.59
  AQLQ(S) Symptoms score, change from baseline, Mean: 0.44
  AQLQ(S) Symptoms score, change from baseline, Median: 0.58
Week 12, 400 mg TID, 95% CI 0.02, 0.60
  AQLQ(S) Activity limitation score, change from baseline, LS Mean Diff vs. placebo: 0.31
Week 12, 400 mg TID, 95% CI −0.01, 0.60
  AQLQ(S) Global score, change from baseline, LS Mean Diff vs. placebo: 0.29
Week 12, 400 mg TID, 95% CI −0.01, 0.68
  AQLQ(S) Symptoms score, change from baseline, LS Mean Diff vs. placebo: 0.34
Week 12, 400 mg TID, 95% CI −0.08, 0.72
  AQLQ(S) Emotional function score, change from baseline, LS Mean Diff vs. placebo: 0.32
Week 12, 400 mg TID, 95% CI −0.23, 0.57
  AQLQ(S) Environmental stimuli score, change from baseline, LS Mean Diff vs. placebo: 0.17
